Experimental data reported in publication PMC6934184, “Selective DNA-PKcs inhibition extends the therapeutic index of localized radiotherapy and chemotherapy” (The Journal of Clinical Investigation, 2019).

Target: T1, ABL1 M351T (Homo sapiens, UniProt P00519, M351T)
T1 construct: purchased Thermo Fisher Scientific (Life Technologies) SelectScreen
Experiment: SelectScreen LanthaScreen
Assay type: binding
Conditions: read-out: % displacement
In short: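 Percent values come from Thermo SelectScreen profiling of NU5455, combining activity and binding assays. CSF1R was run in Z'LYTE format at Km app ATP, and CAMK1 in Adapta format with ATP listed at 10.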

Q: With `CN(C(=O)CN1CCOCC1)c1ccc2sc3c(-c4cccc5c(=O)cc(N6CC7CCC(C6)O7)oc45)cccc3c2c1` [NU5455] as the compound, how does the inhibition at 1 µM read?
A: The inhibition at 1 µM was -1%.
